# From publication PMC8387461, “T cell receptor recognition of hybrid insulin peptides bound to HLA-DQ8” (Nature Communications, 2021)
# Key:
# Format in all cases: cell-based, human
# [1] = system: CD4+ T cell clone A1.9; assay: T cell stimulation assay, IFNγ ELISA, clone A1.9; conditions: primary clone A1.9, APC EBV-KJ, 24 h, 31-mer C-peptide versus 15mer HIP titration
# Protocol: (§1) Fig. 2 Comparison of the stimulatory capacity of full-length proinsulin C-peptide and HIP on T1D CD4 + T cell clones. […] Titration of full-length 31-mer C-peptide ([…], (open circles) and 15mer C-peptide-IAPP2 HIP ([…] (filled circles). Antigen presenting cells (APC) were the EBV line, EBV-KJ, (2 × 10^4 cells/well). APC were cultured for 24 h with the same number (2 × 10^4 cells/well) of the primary CD4 + T-cell clone and the peptide concentration indicated. T-cell response to peptide were indicated by secretion of IFNγ which was measured in triplicate by ELISA and reported as pg/ml. Mean and standard deviations of triplicate IFNγ measurements are shown. Results are representative of two experiments for each clone.
# (§2) For primary T1D CD4+ T cell clones, cells were thawed and used directly in functional assays. For T cell stimulation assays, cloned CD4+ T cells were incubated with BLCL KJ (; HLA-DQ8 + : HLA-DQA1*03:01, HLA-DQB1*03:02), as APCs, together with synthetic peptides. For the alanine scan experiments, each peptide was added to a final concentration of 10 μM. T cell response to antigen was measured as interferon gamma (IFNγ) secretion into the culture media. The IFNγ concentration in the culture media was determined by ELISA (Biolegend).
# (§3) Supplementary Figure 8. […]
# (§4) type) at each position P-3 to P12 are shown. IFNγ was measured in triplicate by ELISA, concentrations are shown in pg/ml. […]
# [2] = system: CD4+ T cell clone A5.5; assay: T cell stimulation assay, IFNγ ELISA, clone A5.5; conditions: primary clone A5.5, APC EBV-KJ, 24 h
# Protocol: as §1, §2, §3, §4
# [3] = system: CD4+ T cell clone A2.13; assay: T cell stimulation assay, IFNγ ELISA, clone A2.13; conditions: primary clone A2.13, APC EBV-KJ, 24 h
# Protocol: as §1, §2
sequence,measurement,setting,value
GQVELGGGNAVEVLK [HIP],response of clone to HIP versus proinsulin C-peptide,[1],responds equally to proinsulin C-peptide or HIP
same,sensitivity to HIP versus native proinsulin C-peptide,[2],ten times more sensitive to the HIP peptide than native proinsulin C-peptide
same,response of clone to HIP,[3],very weakly responded to the HIP peptide
